Eight compounds from DBAASP can be followed below.

≈ marks a conversion by molar mass, not a printed value. Bounds are passed on as bounds.

Test systems include Escherichia coli B; Staphylococcus aureus 1; Staphylococcus aureus; Bacillus subtilis 168; Pseudomonas aeruginosa; Escherichia coli AB94012.
Assay in all cases: ≥ marks a high value that may be exact or a test limit, other limits are often not marked, values filed in µg/mL are converted to µM
For experiment [1], the system named is Candida albicans F7-39/IDE99.
Experiment [2] has as its system Pseudomonas aeruginosa ATCC 27853.
Experiment [3] relates to Staphylococcus aureus ATCC 43300.
Experiment [4] concerns Staphylococcus epidermidis.
Experiment [5] concerns Micrococcus luteus CCM 144.
The test system of experiment [6] is Staphylococcus aureus ATCC 29213.
For experiment [7], the system named is Aeromonas salmonicida NCTC 7812.
Experiment [8] relates to Lactococcus garvieae 00-1422.
Experiment [9] relates to Streptococcus iniae 00-1425.
Experiment [10] concerns Escherichia coli ATCC 25922.
Experiment [11] deals with Vibrio anguillarum ATCC 19264.
In experiment [12] the test system is Shigella flexneri ATCC 12022.
Experiment [13] concerns Enterococcus faecalis ATCC 29212.
In experiment [14] the test system is Staphylococcus aureus ATCC 6538.
For experiment [15], the system named is Staphylococcus aureus ATCC 25923.
Experiment [16] concerns Staphylococcus aureus P1374.
The test system of experiment [17] is Staphylococcus aureus P1381.
Experiment [18] deals with Pseudomonas aeruginosa AB93066.
In experiment [19] the test system is Pseudomonas aeruginosa ATCC 9027.
Experiment [20] has as its system Staphylococcus aureus AB94004.
For experiment [21], the system named is Staphylococcus aureus USA 100.
The test system of experiment [22] is Candida albicans ATCC 90028.
The subject of experiment [23] is Staphylococcus epidermidis ATCC 12228.
The subject of experiment [24] is Staphylococcus aureus USA 300.
Experiment [25] deals with Staphylococcus aureus ATCC 29737.
In experiment [26] the test system is Candida albicans ATCC 10231.
Experiment [27] concerns Pseudomonas aeruginosa CGMCC 1.860.
For experiment [28], the system named is Pseudomonas aeruginosa 0108.
In experiment [29] the test system is Listeria monocytogenes DSM 20600.
In experiment [30] the test system is Micrococcus luteus DSM 20030.
Experiment [31] concerns Listeria fleischmannii DSM 24998.
Experiment [32] has as its system Staphylococcus aureus DSM 2569.
Experiment [33] concerns Candida albicans ATCC 18804.
Experiment [34] deals with Streptococcus sanguinis ATCC 10556.
The subject of experiment [35] is Streptococcus mutans UA159.
For experiment [36], the system named is Streptococcus sobrinus ATCC 6715.

For `CC[C@H](C)[C@H](NC(=O)CN)C(=O)N[C@@H](CC(C)C)C(=O)N[C@@H](CO)C(=O)N[C@@H](CO)C(=O)N[C@@H](CC(C)C)C(=O)N[C@@H](CC(C)C)C(=O)N[C@@H](CCCCN)C(=O)N[C@@H](CCCCN)C(=O)N[C@@H](CC(C)C)C(=O)N[C@@H](CCCCN)C(=O)N[C@@H](CCCCN)C(=O)N[C@H](C(=O)N[C@H](C(=O)N[C@@H](C)C(=O)N[C@@H](CCCCN)C(N)=O)[C@@H](C)CC)[C@@H](C)CC` [GILSSLLKKLKKIIAK], the MIC in experiment [1] turned out to be 10 µM (≈ 17.5 µg/mL); in [2], 5 µM (≈ 8.76 µg/mL); in experiment [3] it was 16 µM (≈ 28 µg/mL); in the experiment with Escherichia coli B, 8 µM (≈ 14 µg/mL); in the experiment on Staphylococcus aureus 1, 3.8 µM (≈ 6.66 µg/mL); in the experiment with Staphylococcus aureus it was 5 µM (≈ 8.76 µg/mL). The MIC against Bacillus subtilis 168 is 7 µM (≈ 12.3 µg/mL); against Pseudomonas aeruginosa, 7.5 µM (≈ 13.1 µg/mL); in [4], 1.8 µM (≈ 3.15 µg/mL); in [5] it was 3 µM (≈ 5.26 µg/mL).

Turning to `CC[C@H](C)[C@H](NC(=O)CNC(=O)[C@H](CCCN=C(N)N)NC(=O)[C@H](Cc1ccccc1)NC(=O)[C@@H](NC(=O)[C@H](Cc1cnc[nH]1)NC(=O)[C@H](Cc1cnc[nH]1)NC(=O)[C@H](Cc1ccccc1)NC(=O)[C@@H](N)Cc1ccccc1)[C@@H](C)CC)C(=O)N[C@H](C(=O)N[C@@H](Cc1cnc[nH]1)C(=O)N[C@H](C(=O)NCC(=O)N[C@@H](CCCCN)C(=O)N[C@H](C(=O)N[C@H](C(=O)N[C@@H](Cc1cnc[nH]1)C(=O)N[C@@H](CCCCN)C(=O)N[C@@H](CC(C)C)C(=O)N[C@H](C(=O)N[C@H](C(=O)NCC(=O)O)[C@@H](C)O)C(C)C)[C@@H](C)CC)[C@@H](C)O)C(C)C)C(C)C` [FFHHIFRGIVHVGKTIHKLVTG], the MIC in experiment [6] is 2.46 µM (≈ 6.26 µg/mL); in experiment [7] it was at least 78.6 µM; in experiment [8] it was 0.61 µM (≈ 1.55 µg/mL); in experiment [9] it was 2.46 µM (≈ 6.26 µg/mL); in [10], 4.91 µM (≈ 12.5 µg/mL); in [11] it was 4.91 µM (≈ 12.5 µg/mL). The values for the MIC in experiment [12] and in [13] were 2.46 µM (≈ 6.26 µg/mL) and 1.23 µM (≈ 3.13 µg/mL), respectively.

Consider `CC[C@H](C)[C@H](NC(=O)[C@H](CO)NC(=O)[C@H](CCCCN)NC(=O)[C@@H](NC(=O)CNC(=O)[C@H](CCCCN)NC(=O)[C@H](Cc1c[nH]c2ccccc12)NC(=O)[C@H](CC(C)C)NC(=O)[C@H](CCCCN)NC(=O)CNC(=O)[C@H](CC(C)C)NC(=O)[C@@H](NC(=O)[C@@H](N)CC(C)C)[C@@H](C)CC)C(C)C)C(=O)N[C@@H](Cc1ccccc1)C(N)=O` [LILGKLWKGVKSIF], for which the minimal inhibitory concentration (MIC) was 7.8 µM (≈ 12.5 µg/mL) in experiment [14]; 7.8 µM (≈ 12.5 µg/mL) in [15]; 3.9 µM (≈ 6.25 µg/mL) in experiment [16]; 31.2 µM (≈ 50 µg/mL) in the experiment with Escherichia coli AB94012; 15.6 µM (≈ 25 µg/mL) in [17]; at least 62.4 µM in experiment [18]. Also, the figures for the MIC in [19], in [10] and in experiment [20] were 15.6 µM (≈ 25 µg/mL), 62.4 µM (≈ 99.9 µg/mL) and 7.8 µM (≈ 12.5 µg/mL), respectively.

Take `CC[C@H](C)[C@H](N)C(=O)N[C@@H](CCCN=C(N)N)C(=O)N[C@H](C(=O)N[C@@H](CCCCN)C(=O)N[C@H](C(=O)N[C@@H](CCCN=C(N)N)C(=O)N[C@H](C(=O)N[C@@H](CCCCN)C(N)=O)[C@@H](C)CC)[C@@H](C)CC)[C@@H](C)CC` [IRIKIRIK]: the minimal inhibitory concentration (MIC) in experiment [21] is 12.5 µM (≈ 13 µg/mL); in experiment [22], 1.56 µM (≈ 1.62 µg/mL); in experiment [23], 3.75 µM (≈ 3.9 µg/mL); in experiment [24] it was 12.5 µM (≈ 13 µg/mL); in [10], 15 µM (≈ 15.6 µg/mL); in [25], at least 60.1 µM. In experiment [26], this compound returned a minimum inhibitory concentration (MIC) of 3.75 µM (≈ 3.9 µg/mL).

For `CC[C@H](C)[C@H](N)C(=O)N[C@@H](CCCCN)C(=O)N[C@@H](CCCCN)C(=O)N[C@@H](Cc1c[nH]c2ccccc12)C(=O)N[C@@H](CC(C)C)C(=O)N[C@@H](CO)C(=O)N[C@@H](CCCCN)C(=O)N[C@H](C(=O)N[C@@H](CCCCN)C(=O)N[C@@H](CCCCN)C(=O)N[C@@H](CC(C)C)C(=O)N[C@@H](CC(C)C)C(=O)N[C@@H](CCCCN)C(N)=O)[C@@H](C)CC` [IKKWLSKIKKLLK], the minimum inhibitory concentration (MIC) in [27] amounted to 3.13 µM (≈ 5.09 µg/mL); in [28], 6.25 µM (≈ 10.2 µg/mL).

Consider `CC[C@H](C)[C@H](NC(=O)CNC(=O)[C@H](CC(N)=O)NC(=O)[C@H](Cc1c[nH]c2ccccc12)NC(=O)[C@@H](NC(=O)[C@@H](NC(=O)[C@H](CO)NC(=O)[C@H](CC(C)C)NC(=O)[C@@H](N)Cc1ccccc1)[C@@H](C)O)[C@@H](C)CC)C(=O)N[C@@H](CCCCN)C(=O)N[C@@H](CO)C(=O)N[C@@H](CC(C)C)C(=O)N[C@@H](Cc1ccccc1)C(N)=O` [FLSTIWNGIKSLF], for which the minimal inhibitory concentration (MIC) in experiment [29] amounted to 15 µM (≈ 22.9 µg/mL); in experiment [30], 4 µM (≈ 6.1 µg/mL); in experiment [31] it was 15 µM (≈ 22.9 µg/mL); in experiment [32] it was 8 µM (≈ 12.2 µg/mL).

In the case of `CC(C)C[C@H](NC(=O)[C@H](Cc1cnc[nH]1)NC(=O)[C@H](Cc1ccc(O)cc1)NC(=O)[C@H](CCCN=C(N)N)NC(=O)[C@H](Cc1ccc(O)cc1)NC(=O)[C@H](CCCCN)NC(=O)[C@@H](N)CCCCN)C(=O)N[C@@H](CCCCN)C(=O)N1CCC[C@H]1C(=O)N[C@@H](Cc1ccccc1)C(=O)N[C@@H](CO)C(=O)N[C@@H](CCCCN)C(=O)N[C@@H](CCCCN)C(N)=O` [KKYRYHLKPFSKK], the minimum inhibitory concentration (MIC) was at least 128 µM in experiment [33], over 128 µM in [15] and 128 µM (≈ 220 µg/mL) in experiment [10].

Consider `CC(C)[C@H](NC(=O)[C@H](CCCCN)NC(=O)[C@H](CCCCN)NC(=O)[C@H](C)NC(=O)[C@H](CCCCN)NC(=O)[C@H](CCCCN)NC(=O)[C@H](Cc1ccccc1)NC(=O)[C@H](Cc1ccccc1)NC(=O)[C@H](CCCCN)NC(=O)[C@H](CCCCN)NC(=O)[C@H](Cc1c[nH]c2ccccc12)NC(=O)CN)C(=O)NCC(=O)N[C@@H](CCCCN)C(=O)O` [GWKKFFKKAKKVGK], for which the MIC in experiment [34], in experiment [35] and in [36] was at least 305 µM throughout.
